Measurements taken from BindingDB's records for doi:10.1111/j.1527-3458.2004.tb00024.x (Karolinska Institutet, 2004).

Target: T1, D1 dopamine receptor (Macaca fascicularis, UniProt Q5I6B7)
T1 sequence (Q5I6B7 whole entry): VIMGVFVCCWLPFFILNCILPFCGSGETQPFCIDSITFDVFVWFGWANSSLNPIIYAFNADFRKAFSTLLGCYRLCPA

Oc1cc2c(cc1O)C1c3ccccc3CNC1CC2 (stereo unspecified) [Dihydrexidine, DHX]
Ki: 20.2 nM
